Three compounds from patent US10251395B2, “Substituted furano-/thienocycloalkylamino-2-pyrimidine derivatives and use thereof for controlling undesired plant growth” (Bayer CropScience Aktiengesellschaft, priority 2015, dated 2019) can be followed below.

Type in all cases: in vivo
One experiment deals with Lolium multiflorum. In words: Pre-emergence herbicidal effect. The settings on record: Dosage 320 g/ha, scored visually after 3 weeks. The method in brief:
(§1)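 Pre-em soil-surface spray; sandy loam, seeds covered with soil. WP/EC, aq. suspension/emulsion, 600–800 L/ha, +0.2% wetting agent. GH 3 wk; visual % activity vs untreated (100% = dead).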

Experiment [1] has as its system Veronica persica. In words: Pre-emergence herbicidal effect. The conditions noted are these: scored visually after 3 weeks. The method in brief: as §1
In the next experiment the test system is Ipomoea purpurea. In words: Pre-emergence herbicidal effect. The settings on record: scored visually after 3 weeks. The method in brief:
as §1

For the next experiment, the system named is Polygonum convolvulus. Nature of the experiment: Pre-emergence herbicidal effect. The conditions noted are these: scored visually after 3 weeks. The method in brief:
as §1

Experiment [2] relates to Setaria viridis. Nature of the experiment: Pre-emergence herbicidal effect. The settings on record: scored visually after 3 weeks. The method in brief: as §1
For experiment [3], the system named is Viola tricolor. Nature of the experiment: Pre-emergence herbicidal effect. The conditions noted are these: scored visually after 3 weeks. Put shortly:
as §1

Experiment [4] deals with Matricaria inodora. Nature of the experiment: Pre-emergence herbicidal effect. The conditions noted are these: scored visually after 3 weeks. The method in brief: as §1
Experiment [5] deals with Abutilon theophrasti. Nature of the experiment: Pre-emergence herbicidal effect. The conditions noted are these: Dosage 320 g/ha, scored visually after 3 weeks. The method in brief:
as §1

For experiment [6], the system named is Amaranthus retroflexus. In words: Pre-emergence herbicidal effect. The conditions noted are these: scored visually after 3 weeks. The method in brief:
as §1

Experiment [7] relates to Stellaria media. Nature of the experiment: Pre-emergence herbicidal effect. The settings on record: scored visually after 3 weeks. The method in brief: as §1
Another experiment relates to Alopecurus myosuroides. In words: Pre-emergence herbicidal effect. The settings on record: scored visually after 3 weeks. The method in brief:
as §1

The subject of a further experiment is Echinochloa crus-galli. Nature of the experiment: Pre-emergence herbicidal effect. The settings on record: Dosage 320 g/ha, scored visually after 3 weeks. Put shortly: as §1
Experiment [8] has as its system Veronica persica. In words: Post-emergence herbicidal effect. The conditions noted are these: 320 g/ha, assessed visually after about 3 weeks vs untreated controls. Put shortly: (§2)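 Seedlings at the one-leaf stage, about 2 to 3 weeks old, are sprayed on their foliage with compound suspended or emulsified in water containing 0.2% wetting agent. After roughly 3 weeks in the greenhouse, injury is estimated visually on a 0 to 100% scale.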

The subject of experiment [9] is Setaria viridis. Nature of the experiment: Post-emergence herbicidal effect. The settings on record: assessed visually after about 3 weeks vs untreated controls. The method in brief: as §2
Experiment [10] deals with Viola tricolor. In words: Post-emergence herbicidal effect. The conditions noted are these: assessed visually after about 3 weeks vs untreated controls. The method in brief:
as §2

Experiment [11] has as its system Matricaria inodora. In words: Post-emergence herbicidal effect. The conditions noted are these: 320 g/ha, assessed visually after about 3 weeks vs untreated controls. The method in brief:
as §2

Experiment [12] concerns Abutilon theophrasti. Nature of the experiment: Post-emergence herbicidal effect. The conditions noted are these: assessed visually after about 3 weeks vs untreated controls. The method in brief:
as §2

Experiment [13] concerns Amaranthus retroflexus. Nature of the experiment: Post-emergence herbicidal effect. The conditions noted are these: 320 g/ha, assessed visually after about 3 weeks vs untreated controls. Put shortly: as §2
The subject of experiment [14] is Stellaria media. In words: Post-emergence herbicidal effect. The settings on record: 320 g/ha, assessed visually after about 3 weeks vs untreated controls. Put shortly:
as §2

With `CCOC(=O)c1cnc(NC2CCCc3sc(C)cc32)nc1C` (racemic) [compound 240], the “LOLMU pre-emergence efficacy (herbicidal activity)” value with Lolium multiflorum was 60%. Besides, the “VERPE pre-emergence efficacy (herbicidal activity)” value with Veronica persica [1] (Dosage 80 g/ha) and with Veronica persica [1] (Dosage 320 g/ha) was 100% each time. Further, in the experiment on Ipomoea purpurea (Dosage 320 g/ha), the “PHBPU pre-emergence efficacy (herbicidal activity)” value (shortened to “PHBPU pre-emergence efficacy”) was 10%. The “POLCO pre-emergence efficacy (herbicidal activity)” value (from here on “POLCO pre-emergence efficacy”) in the experiment on Polygonum convolvulus (Dosage 80 g/ha) and with Polygonum convolvulus (Dosage 320 g/ha) was 70% in each case. Also, the “SETVI pre-emergence efficacy (herbicidal activity)” value (“SETVI pre-emergence efficacy” for short) in the experiment with Setaria viridis [2] (Dosage 80 g/ha) was 90%; in the experiment on Setaria viridis [2] (Dosage 320 g/ha), 100%. Further, the “VIOTR pre-emergence efficacy (herbicidal activity)” value with Viola tricolor [3] (Dosage 80 g/ha) turned out to be 70%; in the experiment with Viola tricolor [3] (Dosage 320 g/ha), 100%. Further, the “MATIN pre-emergence efficacy (herbicidal activity)” value (“MATIN pre-emergence efficacy” for short) is on record as 90% with Matricaria inodora [4] (Dosage 80 g/ha) and 100% in the experiment with Matricaria inodora [4] (Dosage 320 g/ha). In addition, the “ABUTH pre-emergence efficacy (herbicidal activity)” value in the experiment on Abutilon theophrasti [5] is reported as 70%. Further, the “AMARE pre-emergence efficacy (herbicidal activity)” value (“AMARE pre-emergence efficacy” for short) with Amaranthus retroflexus [6] (Dosage 320 g/ha) turned out to be 80%. Moreover, the “STEME pre-emergence efficacy (herbicidal activity)” value (“STEME pre-emergence efficacy” for short) with Stellaria media [7] (Dosage 80 g/ha) and with Stellaria media [7] (Dosage 320 g/ha) was 100% each time.

As for `C/C(=N/OCc1ccccc1)c1cnc(NC2CCCc3sc(C)cc32)nc1N` (racemic) [compound 291], in the experiment on Lolium multiflorum, the “LOLMU pre-emergence efficacy (herbicidal activity)” value was 60%. In addition, the “VERPE pre-emergence efficacy (herbicidal activity)” value in the experiment on Veronica persica [1] (Dosage 80 g/ha) and in the experiment with Veronica persica [1] (Dosage 320 g/ha) was 100% throughout. Also, the “ALOMY pre-emergence efficacy (herbicidal activity)” value amounted to 60% with Alopecurus myosuroides (Dosage 80 g/ha) and 90% in the experiment on Alopecurus myosuroides (Dosage 320 g/ha). In the experiment on Ipomoea purpurea (Dosage 320 g/ha), the “PHBPU pre-emergence efficacy” value is listed as 100%. In addition, the “POLCO pre-emergence efficacy” value with Polygonum convolvulus (Dosage 320 g/ha) was 70%. The entries for the “SETVI pre-emergence efficacy” value in the experiment with Setaria viridis [2] (Dosage 80 g/ha) and with Setaria viridis [2] (Dosage 320 g/ha) were 90% and 100%, respectively. Further, the “VIOTR pre-emergence efficacy (herbicidal activity)” value in the experiment on Viola tricolor [3] (Dosage 80 g/ha) came out at 90%; in the experiment on Viola tricolor [3] (Dosage 320 g/ha), 100%. Besides, the “MATIN pre-emergence efficacy” value in the experiment with Matricaria inodora [4] (Dosage 80 g/ha) and in the experiment on Matricaria inodora [4] (Dosage 320 g/ha) was 100% throughout. Further, the “ECHCG pre-emergence efficacy (herbicidal activity)” value with Echinochloa crus-galli was 80%. In addition, the “AMARE pre-emergence efficacy” value with Amaranthus retroflexus [6] (Dosage 320 g/ha) is 100%. Further, the “STEME pre-emergence efficacy” value in the experiment with Stellaria media [7] (Dosage 80 g/ha) and in the experiment on Stellaria media [7] (Dosage 320 g/ha) was 100% each time. Besides, in the experiment on Veronica persica [8], the “post-emergence efficacy VERPE” value is listed as 60%. Moreover, the “post-emergence efficacy SETVI” value came to 60% in the experiment on Setaria viridis [9] (80 g/ha) and 80% in the experiment with Setaria viridis [9] (320 g/ha). For the same compound, the “post-emergence efficacy VIOTR” value with Viola tricolor [10] (80 g/ha) and in the experiment on Viola tricolor [10] (320 g/ha) was 80% throughout. In the experiment with Matricaria inodora [11], the “post-emergence efficacy MATIN” value came out at 80%. Moreover, the “post-emergence efficacy ABUTH” value is 80% in the experiment on Abutilon theophrasti [12] (80 g/ha) and 90% in the experiment with Abutilon theophrasti [12] (320 g/ha). Further, the “post-emergence efficacy AMARE” value in the experiment with Amaranthus retroflexus [13] is 80%.

Regarding `Cc1cc2c(s1)CCCC2Nc1nc(N)c(-c2cccc(F)c2)c(C(F)F)n1` (racemic) [compound 302], the “ALOMY pre-emergence efficacy (herbicidal activity)” value with Alopecurus myosuroides (Dosage 320 g/ha) is on record as 70%. The “PHBPU pre-emergence efficacy” value was 60% in the experiment with Ipomoea purpurea (Dosage 80 g/ha) and 80% in the experiment on Ipomoea purpurea (Dosage 320 g/ha). Also, the “POLCO pre-emergence efficacy” value came to 70% in the experiment with Polygonum convolvulus (Dosage 80 g/ha) and 100% in the experiment on Polygonum convolvulus (Dosage 320 g/ha). Moreover, the “SETVI pre-emergence efficacy” value with Setaria viridis [2] (Dosage 80 g/ha) stood at 70%; in the experiment on Setaria viridis [2] (Dosage 320 g/ha), 100%. The results for the “MATIN pre-emergence efficacy” value in the experiment with Matricaria inodora [4] (Dosage 80 g/ha) and in the experiment with Matricaria inodora [4] (Dosage 320 g/ha) were 90% and 100%, respectively. Also, the “ECHCG pre-emergence efficacy (herbicidal activity)” value with Echinochloa crus-galli is given as 100%. In addition, the “ABUTH pre-emergence efficacy (herbicidal activity)” value in the experiment with Abutilon theophrasti [5] is given as 80%. For the same compound, the “AMARE pre-emergence efficacy” value in the experiment with Amaranthus retroflexus [6] (Dosage 80 g/ha) and with Amaranthus retroflexus [6] (Dosage 320 g/ha) was 100% each time. In addition, the “STEME pre-emergence efficacy” value in the experiment with Stellaria media [7] (Dosage 80 g/ha) and in the experiment on Stellaria media [7] (Dosage 320 g/ha) was 100% in each case. Further, the “post-emergence efficacy VIOTR” value in the experiment on Viola tricolor [10] (80 g/ha) and with Viola tricolor [10] (320 g/ha) was 90% throughout. The “post-emergence efficacy ABUTH” value in the experiment with Abutilon theophrasti [12] (320 g/ha) was determined as 60%. Also, the “post-emergence efficacy STEME” value in the experiment with Stellaria media [14] is recorded as 80%.
